pIC50: −log10 of the molar value. Blank lines part the entries; values can stand above or below the compound they belong to.
Experiments:
Rattus norvegicus [1] = species: Rattus norvegicus; assay: animal or person; conditions: read-out: INH
[2] = biological target: Prostaglandin G/H synthase 1 (Homo sapiens, UniProt P23219)
[3] = biological target: T1, Prostaglandin G/H synthase 2 (Homo sapiens, UniProt P35354)
T1 sequence (P35354 whole entry): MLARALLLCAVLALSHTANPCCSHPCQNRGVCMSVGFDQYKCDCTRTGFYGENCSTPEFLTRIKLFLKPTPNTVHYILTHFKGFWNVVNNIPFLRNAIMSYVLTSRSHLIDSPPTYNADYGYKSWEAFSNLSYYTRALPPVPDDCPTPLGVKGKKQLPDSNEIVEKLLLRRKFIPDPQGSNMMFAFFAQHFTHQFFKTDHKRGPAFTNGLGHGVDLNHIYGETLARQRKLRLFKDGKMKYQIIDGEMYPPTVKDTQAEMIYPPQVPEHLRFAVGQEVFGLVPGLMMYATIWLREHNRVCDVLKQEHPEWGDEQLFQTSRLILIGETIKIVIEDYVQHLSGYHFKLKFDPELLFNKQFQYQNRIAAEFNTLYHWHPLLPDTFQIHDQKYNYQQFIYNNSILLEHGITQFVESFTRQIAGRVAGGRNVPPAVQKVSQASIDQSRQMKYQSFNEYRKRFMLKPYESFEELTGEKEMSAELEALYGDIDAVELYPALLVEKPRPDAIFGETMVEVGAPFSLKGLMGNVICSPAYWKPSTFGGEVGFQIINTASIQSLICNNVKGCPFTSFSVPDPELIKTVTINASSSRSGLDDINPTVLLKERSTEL

Rattus norvegicus [4] = assay: Antiinflammatory activity in rat air pouch model assessed as inhibition of carrageenan-induced paw edema; format: functional
Rattus norvegicus [5] = species: Rattus norvegicus; assay: Antiinflammatory activity in rat air pouch model assessed as inhibition of carrageenan-induced inflammatory hyperalgesia; format: functional
Rattus norvegicus [6] = species: Rattus norvegicus; assay: Antiarthritic activity in rat assessed as inhibition of adjuent-induced arthritic pain; format: functional
Rattus norvegicus [7] = species: Rattus norvegicus; assay: Antiinflammatory activity in rat air pouch model assessed as inhibition of carrageenan-induced PGE2 production; format: functional
Cynomolgus monkey = assay: Half life in cynomolgus monkey; format: ADME, organism-based, Macaca fascicularis; conditions: in vivo
Homo sapiens = species: Homo sapiens; assay: (§1) Half life in human; format: ADME, organism-based; conditions: in vivo
Liver microsomes = assay: Metabolic stability in human liver microsomes assessed as compound remaining; format: ADME, Microsome
[8] = Half life in rat; format: ADME, organism-based; conditions: in vivo
[9] = Half life in dog; format: ADME, organism-based, Canis lupus familiaris; conditions: in vivo
[10] = as §1; format: ADME, organism-based; conditions: in vivo
Rattus norvegicus [11] = species: Rattus norvegicus; assay: animal or person; conditions: read-out: INH; remark: listed apart in the source

Chain of Prostaglandin G/H synthase 1 (P23219 whole entry): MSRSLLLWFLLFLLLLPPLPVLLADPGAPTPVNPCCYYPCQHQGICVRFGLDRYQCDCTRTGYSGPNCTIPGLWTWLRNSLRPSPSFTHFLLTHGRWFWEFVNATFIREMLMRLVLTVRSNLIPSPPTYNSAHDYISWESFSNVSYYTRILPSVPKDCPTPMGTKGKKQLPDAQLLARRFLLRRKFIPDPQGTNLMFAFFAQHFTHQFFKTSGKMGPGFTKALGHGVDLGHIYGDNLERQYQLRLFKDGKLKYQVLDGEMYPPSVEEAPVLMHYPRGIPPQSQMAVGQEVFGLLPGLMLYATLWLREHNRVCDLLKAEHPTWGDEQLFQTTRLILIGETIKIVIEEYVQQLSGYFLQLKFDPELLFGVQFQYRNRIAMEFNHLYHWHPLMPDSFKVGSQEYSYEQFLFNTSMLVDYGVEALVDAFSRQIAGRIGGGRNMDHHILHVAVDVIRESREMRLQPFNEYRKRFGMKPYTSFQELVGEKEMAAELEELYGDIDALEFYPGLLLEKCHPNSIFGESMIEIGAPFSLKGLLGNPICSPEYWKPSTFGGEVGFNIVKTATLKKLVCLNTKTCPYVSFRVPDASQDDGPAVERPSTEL

Structure (SMILES): CC(C)CSc1cc2c(cc1Cl)C=C(C(=O)O)C(C(F)(F)F)O2 (configuration not stated)
inhibition in vivo at 10 mg/kg (Rattus norvegicus [1]): 30%

Structure (SMILES): Nc1c(Cl)ccc2c1C=C(C(=O)O)C(C(F)(F)F)O2 (configuration not stated)
pIC50 [2]: < 4.00

Structure (SMILES): CC(C)CCc1cc2c(cc1Cl)C=C(C(=O)O)C(C(F)(F)F)O2 (configuration not stated)
inhibition in vivo at 10 mg/kg (Rattus norvegicus [1]): 51%

Structure (SMILES): CC(C)CN(C)c1cc2c(cc1Cl)C=C(C(=O)O)C(C(F)(F)F)O2 (configuration not stated)
inhibition in vivo at 10 mg/kg (Rattus norvegicus [1]): 52%

Structure (SMILES): CCCc1cc2c(cc1Cl)C=C(C(=O)O)C(C(F)(F)F)O2 (configuration not stated)
inhibition in vivo at 10 mg/kg (Rattus norvegicus [1]): 49%

Structure (SMILES): CCOc1c(Cl)ccc2c1C=C(C(=O)O)C(C(F)(F)F)O2 (configuration not stated)
pIC50 [2]: < 4.00 | pIC50 [3]: < 4.00

Structure (SMILES): CCC(CC)COc1cc2c(cc1Cl)C=C(C(=O)O)C(C(F)(F)F)O2 (configuration not stated)
inhibition in vivo at 10 mg/kg (Rattus norvegicus [1]): 42%

More lines, main results first:

pIC50 [3]: > 7.68
Structure (SMILES): CCC(CC)COc1c(Cl)cc2c(c1Cl)OC(C(F)(F)F)C(C(=O)O)=C2 (configuration not stated)

pIC50 [3]: > 7.55
Structure (SMILES): CC(C)COc1c(Cl)cc2c(c1Cl)O[C@@H](C(F)(F)F)C(C(=O)O)=C2

t1/2 (Cynomolgus monkey): 14.2 h | t1/2 (Homo sapiens): 360 h | Stability (Liver microsomes): 100%
Structure (SMILES): O=C(O)C1=Cc2cc(Cl)cc(Cl)c2O[C@@H]1C(F)(F)F
ED50 (Rattus norvegicus [4]): 0.54 mg/kg | ED50 (Rattus norvegicus [5]): 2.6 mg/kg | ED50 (Rattus norvegicus [6]): 0.03 mg/kg | ED50 (Rattus norvegicus [7]): 0.54 mg/kg

pIC50 [2]: > 6.85 | pIC50 [3]: > 8.22
Structure (SMILES): O=C(O)C1=Cc2cc(Cl)c(OCC3CCCC3)c(Cl)c2OC1C(F)(F)F (configuration not stated)

half-life [8]: 4 h | half-life [9]: 18 h | half-life [10]: 34 h
Structure (SMILES): CC(C)(C)c1cc2c(cc1Cl)C=C(C(=O)O)[C@@H](C(F)(F)F)O2 [TIGEMOCOXIB]
ED50 (Rattus norvegicus [4]): 2.7 mg/kg | ED50 (Rattus norvegicus [5]): 4 mg/kg | ED50 (Rattus norvegicus [6]): 0.08 mg/kg | ED50 (Rattus norvegicus [7]): 0.43 mg/kg | inhibition in vivo at 2 mg/kg (Rattus norvegicus [11]): 100%

pIC50 [3]: > 7.47
Structure (SMILES): O=C(O)C1=Cc2cc(Cl)c(OCC3CCCCC3)c(Cl)c2OC1C(F)(F)F (configuration not stated)

Stability (Liver microsomes): 51%
Structure (SMILES): CC(C)(C)c1cc2c(cc1Cl)C=C(C(=O)O)C(C(F)(F)F)O2 (configuration not stated)
inhibition in vivo at 10 mg/kg (Rattus norvegicus [1]): 100%

pIC50 [2]: > 6.85 | pIC50 [3]: > 7.55
Structure (SMILES): CC(C)(C)Oc1c(Cl)cc2c(c1Cl)OC(C(F)(F)F)C(C(=O)O)=C2 (configuration not stated)

Reference: ChEMBL document CHEMBL1629461, “The novel benzopyran class of selective cyclooxygenase-2 inhibitors. Part 2: the second clinical candidate having a shorter and favorable human half-life” (Bioorg Med Chem Lett, 2010)
